Results: paper PMC7252619 (PLoS ONE, 2020)
Like-named read-outs stand apart in the source and are kept apart here.

Assays:
Experiment in all cases: Kinase activity test (ReactionBiology), % enzyme activity relative to DMSO
Assay type in all cases: biochemical
[1] = molecular target: T1, DAPK1 (Homo sapiens, UniProt P53355); settings: DAPK1
T1 construct: purchased ReactionBiology

[2] = molecular target: T2, CK1d (Homo sapiens, UniProt P48730); settings: CK1d; for % Enzyme Activity (relative to DMSO controls), Data 1: replicate Data 1; for % Enzyme Activity (relative to DMSO controls), Data 2: replicate Data 2
T2 construct: purchased ReactionBiology

[3] = molecular target: VEGFR2 (Homo sapiens, UniProt P35968); set-up: purchased ReactionBiology; settings: VEGFR2; for % Enzyme Activity (relative to DMSO controls), Data 1: replicate Data 1; for % Enzyme Activity (relative to DMSO controls), Data 2: replicate Data 2;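 on all read-outs here: VEGFR2 was one member of a ten-kinase screening panel testing marketed FDA-approved drugs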
Sequence of VEGFR2 (P35968 20-1356): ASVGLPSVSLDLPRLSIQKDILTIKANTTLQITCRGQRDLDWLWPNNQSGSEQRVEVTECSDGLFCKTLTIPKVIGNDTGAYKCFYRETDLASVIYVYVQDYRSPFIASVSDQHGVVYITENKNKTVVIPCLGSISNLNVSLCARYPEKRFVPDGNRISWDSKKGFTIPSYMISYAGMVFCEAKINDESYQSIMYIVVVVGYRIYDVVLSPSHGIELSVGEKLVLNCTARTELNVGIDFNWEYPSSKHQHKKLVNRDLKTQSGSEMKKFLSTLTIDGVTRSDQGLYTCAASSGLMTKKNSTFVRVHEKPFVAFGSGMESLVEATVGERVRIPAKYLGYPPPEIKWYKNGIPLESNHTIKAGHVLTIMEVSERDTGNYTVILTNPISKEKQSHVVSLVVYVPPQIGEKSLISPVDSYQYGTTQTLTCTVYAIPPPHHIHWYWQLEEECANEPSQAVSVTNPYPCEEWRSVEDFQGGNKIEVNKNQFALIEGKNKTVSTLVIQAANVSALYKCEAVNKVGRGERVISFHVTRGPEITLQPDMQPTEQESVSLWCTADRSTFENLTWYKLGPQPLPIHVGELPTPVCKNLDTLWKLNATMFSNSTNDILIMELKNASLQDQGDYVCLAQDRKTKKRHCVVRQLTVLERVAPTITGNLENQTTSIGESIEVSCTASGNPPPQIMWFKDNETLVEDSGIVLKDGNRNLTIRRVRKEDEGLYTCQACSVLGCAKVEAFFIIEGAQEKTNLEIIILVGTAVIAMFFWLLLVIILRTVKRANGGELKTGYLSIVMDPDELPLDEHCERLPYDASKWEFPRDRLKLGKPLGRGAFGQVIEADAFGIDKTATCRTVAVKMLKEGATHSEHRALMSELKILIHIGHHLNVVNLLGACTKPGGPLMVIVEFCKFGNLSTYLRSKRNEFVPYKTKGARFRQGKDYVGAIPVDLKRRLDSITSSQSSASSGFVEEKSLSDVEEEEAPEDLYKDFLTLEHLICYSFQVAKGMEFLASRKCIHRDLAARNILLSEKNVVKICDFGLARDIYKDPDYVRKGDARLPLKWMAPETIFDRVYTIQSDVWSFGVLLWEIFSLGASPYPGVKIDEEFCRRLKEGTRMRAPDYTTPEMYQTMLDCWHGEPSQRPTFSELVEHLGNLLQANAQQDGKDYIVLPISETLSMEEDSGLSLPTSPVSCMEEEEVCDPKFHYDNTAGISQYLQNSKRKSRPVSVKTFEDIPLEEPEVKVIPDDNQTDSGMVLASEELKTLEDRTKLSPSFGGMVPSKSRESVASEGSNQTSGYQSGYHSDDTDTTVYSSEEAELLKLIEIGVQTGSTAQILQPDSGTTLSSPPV

T1 sequence (P53355 whole entry): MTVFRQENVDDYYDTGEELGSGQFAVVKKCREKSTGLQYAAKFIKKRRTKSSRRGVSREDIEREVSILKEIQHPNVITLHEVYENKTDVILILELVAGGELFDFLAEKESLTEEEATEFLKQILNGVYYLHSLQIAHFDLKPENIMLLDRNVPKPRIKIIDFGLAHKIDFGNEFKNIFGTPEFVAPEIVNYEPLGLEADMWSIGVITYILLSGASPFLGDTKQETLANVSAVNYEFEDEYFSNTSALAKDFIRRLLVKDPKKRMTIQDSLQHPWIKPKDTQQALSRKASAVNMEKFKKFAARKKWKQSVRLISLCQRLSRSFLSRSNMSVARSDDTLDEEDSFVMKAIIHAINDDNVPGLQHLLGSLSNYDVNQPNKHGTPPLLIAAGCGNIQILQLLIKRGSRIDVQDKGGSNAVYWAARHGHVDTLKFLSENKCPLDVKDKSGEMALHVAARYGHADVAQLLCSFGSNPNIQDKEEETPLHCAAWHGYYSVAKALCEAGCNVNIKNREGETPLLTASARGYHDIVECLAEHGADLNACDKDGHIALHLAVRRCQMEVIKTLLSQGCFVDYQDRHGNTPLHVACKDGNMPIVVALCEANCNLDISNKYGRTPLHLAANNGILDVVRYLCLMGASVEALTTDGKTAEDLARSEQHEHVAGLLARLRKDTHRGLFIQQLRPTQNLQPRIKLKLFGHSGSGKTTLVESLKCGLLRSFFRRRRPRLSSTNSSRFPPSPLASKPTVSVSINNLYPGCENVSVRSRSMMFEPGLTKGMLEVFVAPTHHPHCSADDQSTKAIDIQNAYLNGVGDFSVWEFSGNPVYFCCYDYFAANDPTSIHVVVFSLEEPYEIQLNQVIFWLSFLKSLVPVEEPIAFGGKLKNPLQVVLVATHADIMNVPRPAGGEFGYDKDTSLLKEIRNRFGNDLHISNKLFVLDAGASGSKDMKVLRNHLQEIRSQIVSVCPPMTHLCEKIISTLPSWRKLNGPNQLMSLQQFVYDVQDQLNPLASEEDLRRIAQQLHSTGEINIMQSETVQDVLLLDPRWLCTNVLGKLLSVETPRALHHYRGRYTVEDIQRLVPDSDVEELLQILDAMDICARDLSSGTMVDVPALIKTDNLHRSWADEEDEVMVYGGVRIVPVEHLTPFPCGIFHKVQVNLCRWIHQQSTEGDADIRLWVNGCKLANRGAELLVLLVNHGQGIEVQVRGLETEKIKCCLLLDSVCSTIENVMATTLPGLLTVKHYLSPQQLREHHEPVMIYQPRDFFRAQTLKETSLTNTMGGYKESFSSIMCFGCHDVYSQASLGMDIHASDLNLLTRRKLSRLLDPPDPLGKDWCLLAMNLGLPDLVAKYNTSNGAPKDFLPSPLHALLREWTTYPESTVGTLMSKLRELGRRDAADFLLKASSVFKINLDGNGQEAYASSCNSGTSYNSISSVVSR
T2 sequence (P48730 whole entry): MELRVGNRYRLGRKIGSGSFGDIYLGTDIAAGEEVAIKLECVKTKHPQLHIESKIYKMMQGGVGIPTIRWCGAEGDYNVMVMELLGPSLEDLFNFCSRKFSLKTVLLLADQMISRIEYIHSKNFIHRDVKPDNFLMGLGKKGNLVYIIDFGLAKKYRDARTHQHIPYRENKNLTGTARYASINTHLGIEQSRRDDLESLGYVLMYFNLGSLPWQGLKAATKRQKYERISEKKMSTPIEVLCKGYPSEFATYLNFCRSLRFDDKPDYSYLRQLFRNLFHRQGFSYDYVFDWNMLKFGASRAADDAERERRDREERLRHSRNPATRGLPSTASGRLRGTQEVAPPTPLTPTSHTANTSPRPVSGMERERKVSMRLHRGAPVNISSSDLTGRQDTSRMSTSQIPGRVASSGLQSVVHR

| Molecule | % Enzyme Activity (relative to DMSO controls), Average ([1]; 1 uM, Average) | % Enzyme Activity (relative to DMSO controls), Data 1 ([1]; 1 uM, replicate Data 1) | % Enzyme Activity (relative to DMSO controls), Data 2 ([1]; 1 uM, replicate Data 2) | % Enzyme Activity (relative to DMSO controls), Average ([1]; 10 uM, Average) | % Enzyme Activity (relative to DMSO controls), Data 1 ([1]; 10 uM, replicate Data 1) | % Enzyme Activity (relative to DMSO controls), Data 2 ([1]; 10 uM, replicate Data 2) | further results |
| --- | --- | --- | --- | --- | --- | --- | --- |
| COC(=O)N[C@H](C(=O)N[C@@H](Cc1ccccc1)[C@@H](O)CN(Cc1ccc(-c2ccccn2)cc1)NC(=O)[C@@H](NC(=O)OC)C(C)(C)C)C(C)(C)C [Atazanavir] | 98.48% | 95.12% | 101.84% | 74.66% | 73.05% | 76.27% |  |
| C[C@@H]1O[C@@H]1P(=O)(O)O [Fosfomycin] | 101.25% | 100.97% | 101.52% | 92.74% | 95% | 90.48% |  |
| NC[C@H](O)c1ccc(O)c(O)c1 [Norepinephrine] | 102.77% | 101.72% | 103.82% | 92.90% | 93.2% | 92.59% |  |
| Cc1ccc(Nc2c(F)cccc2Cl)c(CC(=O)O)c1 [Lumiracoxib] | 98.27% |  |  | 101.02% |  |  | % Enzyme Activity (relative to DMSO controls), Average ([2]; 10 uM): 99.41% |
| O=C1C(O)=C([C@H]2CC[C@H](c3ccc(Cl)cc3)CC2)C(=O)c2ccccc21 [Atovaquone] | 96.25% | 96.85% | 95.64% | 91.80% | 90.59% | 93% |  |
| O=c1[nH]cc(F)c(=O)[nH]1 [Fluorouracil] |  |  |  |  |  |  | % Enzyme Activity (relative to DMSO controls), Average ([2]; 1 uM): 104.91%; % Enzyme Activity (relative to DMSO controls), Data 1 ([2]; 1 uM): 106.12%; % Enzyme Activity (relative to DMSO controls), Data 2 ([2]; 1 uM): 103.69%; % Enzyme Activity (relative to DMSO controls), Average ([2]; 10 uM): 106.01%; % Enzyme Activity (relative to DMSO controls), Data 1 ([2]; 10 uM): 110.21%; % Enzyme Activity (relative to DMSO controls), Data 2 ([2]; 10 uM): 101.8%; % Enzyme Activity (relative to DMSO controls), Average ([3]; 1 uM): 113.72%; % Enzyme Activity (relative to DMSO controls), Data 1 ([3]; 1 uM): 118.24%; % Enzyme Activity (relative to DMSO controls), Data 2 ([3]; 1 uM): 109.2%; % Enzyme Activity (relative to DMSO controls), Average ([3]; 10 uM): 105.92%; % Enzyme Activity (relative to DMSO controls), Data 1 ([3]; 10 uM): 109.47%; % Enzyme Activity (relative to DMSO controls), Data 2 ([3]; 10 uM): 102.36% |
| OC(Cn1cncn1)(Cn1cncn1)c1ccc(F)cc1F [Fluconazole] | 100.65% | 103.85% | 97.44% | 95.87% | 97.86% | 93.87% |  |
| CN[C@H]1CC[C@@H](c2ccc(Cl)c(Cl)c2)c2ccccc21 [Sertraline] |  |  |  |  |  |  | % Enzyme Activity (relative to DMSO controls), Average ([2]; 1 uM): 106.53%; % Enzyme Activity (relative to DMSO controls), Data 1 ([2]; 1 uM): 105.95%; % Enzyme Activity (relative to DMSO controls), Data 2 ([2]; 1 uM): 107.11%; % Enzyme Activity (relative to DMSO controls), Average ([2]; 10 uM): 163.39%; % Enzyme Activity (relative to DMSO controls), Data 1 ([2]; 10 uM): 106.22%; % Enzyme Activity (relative to DMSO controls), Data 2 ([2]; 10 uM): 220.55%; % Enzyme Activity (relative to DMSO controls), Average ([3]; 1 uM): 106.32%; % Enzyme Activity (relative to DMSO controls), Data 1 ([3]; 1 uM): 107.12%; % Enzyme Activity (relative to DMSO controls), Data 2 ([3]; 1 uM): 105.51%; % Enzyme Activity (relative to DMSO controls), Average ([3]; 10 uM): 105.91%; % Enzyme Activity (relative to DMSO controls), Data 1 ([3]; 10 uM): 107.3%; % Enzyme Activity (relative to DMSO controls), Data 2 ([3]; 10 uM): 104.52% |
| Cc1ccnc2c1NC(=O)c1cccnc1N2C1CC1 [Nevirapine] | 112.57% | 101.89% | 123.25% | 95.31% | 95.47% | 95.14% |  |
| Acarbose | 112.14% | 116.25% | 108.03% | 96.08% | 99.05% | 93.1% |  |
| CNCCCN1c2ccccc2CCc2ccccc21 [Desipramine] |  |  |  |  |  |  | % Enzyme Activity (relative to DMSO controls), Average ([2]; 10 uM): 133.63%; % Enzyme Activity (relative to DMSO controls), Average ([3]; 1 uM): 96.96%; % Enzyme Activity (relative to DMSO controls), Average ([3]; 10 uM): 89.29% |
| CN(C)CCOc1ccc(/C(=C(/CCCl)c2ccccc2)c2ccccc2)cc1 [Toremifene, reference compound] |  |  |  |  |  |  | remaining activity at 1 µM ([1]; 1 uM, Average, read-out: % Enzyme Activity (relative to DMSO controls), Average): 90.4%; remaining activity at 1 µM ([1]; 1 uM, replicate Data 1, read-out: % Enzyme Activity (relative to DMSO controls), Data 1): 70.4%; remaining activity at 1 µM ([1]; 1 uM, replicate Data 2, read-out: % Enzyme Activity (relative to DMSO controls), Data 2): 110%; remaining activity at 10 µM ([1]; 10 uM, Average, read-out: % Enzyme Activity (relative to DMSO controls), Average): 14.8%; remaining activity at 10 µM ([1]; 10 uM, replicate Data 1, read-out: % Enzyme Activity (relative to DMSO controls), Data 1): 14.9%; remaining activity at 10 µM ([1]; 10 uM, replicate Data 2, read-out: % Enzyme Activity (relative to DMSO controls), Data 2): 14.6%; remaining activity at 1 µM ([1]; compound 1μM, relative to DMSO controls, read-out: % Enzyme activity at 1μM): 90.4%; remaining activity at 10 µM ([1]; compound 10μM, relative to DMSO controls, read-out: % Enzyme activity at 10μM): 14.8% |
| N=C(N)c1ccc(OCCCCCOc2ccc(C(=N)N)cc2)cc1 [Pentamidine] |  |  |  |  |  | 88.42% | % Enzyme Activity (relative to DMSO controls), Data 2 ([3]; 10 uM): 93.27% |

Now from value to molecule, other results behind:

| % Enzyme Activity (relative to DMSO controls), Average ([1]; 1 uM, Average) | % Enzyme Activity (relative to DMSO controls), Data 1 ([1]; 1 uM, replicate Data 1) | % Enzyme Activity (relative to DMSO controls), Data 2 ([1]; 1 uM, replicate Data 2) | % Enzyme Activity (relative to DMSO controls), Average ([1]; 10 uM, Average) | % Enzyme Activity (relative to DMSO controls), Data 1 ([1]; 10 uM, replicate Data 1) | % Enzyme Activity (relative to DMSO controls), Data 2 ([1]; 10 uM, replicate Data 2) | Molecule | further results |
| --- | --- | --- | --- | --- | --- | --- | --- |
| 102.25% | 101.97% | 102.52% | 96.54% | 95.41% | 97.67% | C=C[C@H]1CN2CC[C@H]1C[C@@H]2[C@@H](O)c1ccnc2ccc(OC)cc12 [Quinidine] |  |
| 109.44% | 109.64% | 109.23% | 98.91% | 100.03% | 97.79% | Cn1c(=O)c2[nH]cnc2n(C)c1=O [Theophylline] |  |
| 100.48% | 103.12% | 97.84% | 91.18% | 92.93% | 89.43% | CN1[C@@H]2CC[C@H]1C[C@@H](OC(=O)c1c[nH]c3ccccc13)C2 [Tropisetron] | % Enzyme Activity (relative to DMSO controls), Average ([3]; 1 uM): 100.61%; % Enzyme Activity (relative to DMSO controls), Data 1 ([3]; 1 uM): 99.56%; % Enzyme Activity (relative to DMSO controls), Data 2 ([3]; 1 uM): 101.65%; % Enzyme Activity (relative to DMSO controls), Average ([3]; 10 uM): 97.73%; % Enzyme Activity (relative to DMSO controls), Data 1 ([3]; 10 uM): 102.27%; % Enzyme Activity (relative to DMSO controls), Data 2 ([3]; 10 uM): 93.19% |
